A word on the Tm: it is the temperature at which the thermal transition is half complete. As a reminder, the pEC50 is −log10 of the EC50, conventionally taken in molar units.

In ChEMBL document CHEMBL3390848, “Affinity selection and sequence-activity relationships of HIV-1 membrane fusion inhibitors directed at the drug-resistant variants” (Medchemcomm, 2010) one finds Activity, Tm and EC50 data, which are given here for 6 compounds.

pEC50: −log10 of the molar value. Residues, ends and D or L forms follow the SMILES beside them.

Assay [1] deals with Human immunodeficiency virus 1. Briefly: Binding affinity to HIV1 His-tagged N-terminal heptad repeat of envelope glycoprotein gp41 assessed as recovery of N36-drug complex at 1 uM after 2 hrs by LC-MS analysis.
For assay [2], the system named is Human immunodeficiency virus 1. Nature of the assay: Binding affinity to HIV1 His-tagged N-terminal heptad repeat of envelope glycoprotein gp41 assessed as recovery of N36-drug complex at 10 uM after 2 hrs by LC-MS analysis.
The subject of assay [3] is Human immunodeficiency virus 1. Briefly: Binding affinity to HIV1 His-tagged N-terminal heptad repeat of envelope glycoprotein gp41 assessed as recovery of N36-drug complex at 6 uM after 2 hrs by LC-MS analysis.
Assay [4] concerns Human immunodeficiency virus 1. Briefly: Thermal stability of HIV1 envelope glycoprotein gp41 His-tagged N-terminal heptad repeat N36-drug complex assessed as thermal unfolding transition state by measuring molar ellipticity at 4 to 90 degC by circular dichroic spectra analysis.
For assay [5], the system named is Human immunodeficiency virus 1. Briefly: Binding affinity to HIV1 His-tagged N-terminal heptad repeat of envelope glycoprotein gp41 assessed as recovery of N36-drug complex at 0.6 uM after 2 hrs by LC-MS analysis.
For assay [6], the system named is Human immunodeficiency virus 1. Briefly: Antiviral activity against HIV1 NL4-3 harboring gp41 D36G mutant infected in human HeLa cells expressing CD4-LTR-beta-gal assessed as inhibition of viral replication after 48 hrs by MAGI assay. The format is functional, organism-based.
Assay [7] has as its system Human immunodeficiency virus 1. Nature of the assay: Binding affinity to HIV1 His-tagged N-terminal heptad repeat of envelope glycoprotein gp41 assessed as recovery of N36-drug complex after 2 hrs by LC-MS analysis. Set-up: concentration or dose not given beside the values.

In the case of `CC[C@H](C)[C@H](NC(=O)[C@H](CC(C)C)NC(=O)[C@H](CCC(=O)O)NC(=O)[C@H](CCC(=O)O)NC(=O)[C@@H](NC(=O)[C@H](CCCCN)NC(=O)[C@H](CCCCN)NC(=O)[C@@H](NC(=O)[C@H](Cc1ccc(O)cc1)NC(=O)[C@H](CCC(=O)O)NC(=O)[C@H](CCC(=O)O)NC(=O)[C@@H](NC(=O)[C@H](CCCCN)NC(=O)[C@H](CCCCN)NC(=O)[C@H](CC(=O)O)NC(=O)[C@H](Cc1c[nH]c2ccccc12)NC(=O)[C@H](CCC(=O)O)NC(=O)[C@H](CCC(=O)O)NC(=O)[C@H](Cc1c[nH]c2ccccc12)NC(C)=O)[C@@H](C)CC)[C@@H](C)O)[C@@H](C)CC)C(=O)N[C@@H](CCCCN)C(=O)N[C@@H](CCCCN)C(=O)N[C@@H](CC(=O)O)C(=O)N[C@@H](CCC(=O)O)C(=O)N[C@@H](CCC(=O)O)C(=O)N[C@@H](CCC(N)=O)C(=O)N[C@@H](CCC(N)=O)C(=O)N[C@@H](CCCCN)C(=O)N[C@@H](CCCCN)C(=O)N[C@@H](CC(N)=O)C(=O)N[C@@H](CCC(=O)O)C(=O)N[C@@H](CCC(=O)O)C(=O)N[C@@H](CCC(=O)O)C(=O)N[C@@H](CC(C)C)C(=O)N[C@@H](CCCCN)C(=O)N[C@@H](CCCCN)C(N)=O` (Ac-WEEWDKKIEEYTKKIEELIKKDEEQQKKNEEELKK-NH2), the Activity is 0% in assay [1], 0.7% in assay [2], 0% in assay [3] and 4.3% in assay [5]. Also, the melting temperature (Tm) in assay [4] was found to be 59.7 °C. Besides, the pEC50 in assay [6] is 7.82.
In the case of `CC[C@H](C)[C@H](NC(=O)[C@H](CC(C)C)NC(=O)[C@H](CCC(=O)O)NC(=O)[C@H](CCC(=O)O)NC(=O)[C@@H](NC(=O)[C@H](CCCCN)NC(=O)[C@H](CCCCN)NC(=O)[C@@H](NC(=O)[C@H](Cc1ccc(O)cc1)NC(=O)[C@H](CCC(=O)O)NC(=O)[C@H](CCC(=O)O)NC(=O)[C@@H](NC(=O)[C@H](CCCCN)NC(=O)[C@H](CCCCN)NC(=O)[C@H](CC(=O)O)NC(=O)[C@H](Cc1c[nH]c2ccccc12)NC(=O)[C@H](CCC(=O)O)NC(=O)[C@H](CCC(=O)O)NC(=O)[C@H](Cc1c[nH]c2ccccc12)NC(C)=O)[C@@H](C)CC)[C@@H](C)O)[C@@H](C)CC)C(=O)N[C@@H](CCCCN)C(=O)N[C@@H](CCCCN)C(=O)N[C@@H](CCC(=O)O)C(=O)N[C@@H](CCC(=O)O)C(=O)N[C@@H](CCC(=O)O)C(=O)N[C@@H](CCC(N)=O)C(=O)N[C@@H](CCC(N)=O)C(=O)N[C@@H](CCCCN)C(=O)N[C@@H](CCCCN)C(=O)N[C@@H](CC(N)=O)C(=O)N[C@@H](CCC(=O)O)C(=O)N[C@@H](CCC(=O)O)C(=O)N[C@@H](CCC(=O)O)C(=O)N[C@@H](CC(C)C)C(=O)N[C@@H](CCCCN)C(=O)N[C@@H](CCCCN)C(N)=O` (Ac-WEEWDKKIEEYTKKIEELIKKEEEQQKKNEEELKK-NH2), the Activity in assay [1] came out at 1.8%; in assay [2], 1.3%; in assay [3], 1%; in assay [5], 5.1%. Further, in assay [4], the Tm came out at 66.2 °C. Moreover, the pEC50 in assay [6] was 7.82.
For `CC[C@H](C)[C@H](NC(=O)[C@H](CC(C)C)NC(=O)[C@H](CCC(=O)O)NC(=O)[C@H](CCC(=O)O)NC(=O)[C@@H](NC(=O)[C@H](CCCCN)NC(=O)[C@H](CCCCN)NC(=O)[C@@H](NC(=O)[C@H](Cc1ccc(O)cc1)NC(=O)[C@H](CCC(=O)O)NC(=O)[C@H](CCC(=O)O)NC(=O)[C@@H](NC(=O)[C@H](CCCCN)NC(=O)[C@H](CCCCN)NC(=O)[C@H](CC(=O)O)NC(=O)[C@H](Cc1c[nH]c2ccccc12)NC(=O)[C@H](CCC(=O)O)NC(=O)[C@H](CCC(=O)O)NC(=O)[C@H](Cc1c[nH]c2ccccc12)NC(C)=O)[C@@H](C)CC)[C@@H](C)O)[C@@H](C)CC)C(=O)N[C@@H](CCCCN)C(=O)N[C@@H](CCCCN)C(=O)N[C@@H](Cc1ccccc1)C(=O)N[C@@H](CCC(=O)O)C(=O)N[C@@H](CCC(=O)O)C(=O)N[C@@H](CCC(N)=O)C(=O)N[C@@H](CCC(N)=O)C(=O)N[C@@H](CCCCN)C(=O)N[C@@H](CCCCN)C(=O)N[C@@H](CC(N)=O)C(=O)N[C@@H](CCC(=O)O)C(=O)N[C@@H](CCC(=O)O)C(=O)N[C@@H](CCC(=O)O)C(=O)N[C@@H](CC(C)C)C(=O)N[C@@H](CCCCN)C(=O)N[C@@H](CCCCN)C(N)=O` (Ac-WEEWDKKIEEYTKKIEELIKKFEEQQKKNEEELKK-NH2), the Activity came out at 4% in assay [1], 0.7% in assay [2], 0.6% in assay [3] and 6.3% in assay [5]. Moreover, in assay [4], the Tm was 72.9 °C. Besides, in assay [6], the pEC50 was 8.82.
Consider `CC[C@H](C)[C@H](NC(=O)[C@H](CC(C)C)NC(=O)[C@H](CCC(=O)O)NC(=O)[C@H](CCC(=O)O)NC(=O)[C@@H](NC(=O)[C@H](CCCCN)NC(=O)[C@H](CCCCN)NC(=O)[C@@H](NC(=O)[C@H](Cc1ccc(O)cc1)NC(=O)[C@H](CCC(=O)O)NC(=O)[C@H](CCC(=O)O)NC(=O)[C@@H](NC(=O)[C@H](CCCCN)NC(=O)[C@H](CCCCN)NC(=O)[C@H](CC(=O)O)NC(=O)[C@H](Cc1c[nH]c2ccccc12)NC(=O)[C@H](CCC(=O)O)NC(=O)[C@H](CCC(=O)O)NC(=O)[C@H](Cc1c[nH]c2ccccc12)NC(C)=O)[C@@H](C)CC)[C@@H](C)O)[C@@H](C)CC)C(=O)N[C@@H](CCCCN)C(=O)N[C@@H](CCCCN)C(=O)NCC(=O)N[C@@H](CCC(=O)O)C(=O)N[C@@H](CCC(=O)O)C(=O)N[C@@H](CCC(N)=O)C(=O)N[C@@H](CCC(N)=O)C(=O)N[C@@H](CCCCN)C(=O)N[C@@H](CCCCN)C(=O)N[C@@H](CC(N)=O)C(=O)N[C@@H](CCC(=O)O)C(=O)N[C@@H](CCC(=O)O)C(=O)N[C@@H](CCC(=O)O)C(=O)N[C@@H](CC(C)C)C(=O)N[C@@H](CCCCN)C(=O)N[C@@H](CCCCN)C(N)=O` (Ac-WEEWDKKIEEYTKKIEELIKKGEEQQKKNEEELKK-NH2), for which the Activity came out at 11.6% in assay [1], 13.8% in assay [2], 14.4% in assay [3] and 5.9% in assay [5]. In assay [4], the Tm worked out at 79.1 °C. Also, in assay [6], the negative-log EC50 (pEC50) was 8.72.
Turning to `CC[C@H](C)[C@H](NC(=O)[C@H](CC(C)C)NC(=O)[C@H](CCC(=O)O)NC(=O)[C@H](CCC(=O)O)NC(=O)[C@@H](NC(=O)[C@H](CCCCN)NC(=O)[C@H](CCCCN)NC(=O)[C@@H](NC(=O)[C@H](Cc1ccc(O)cc1)NC(=O)[C@H](CCC(=O)O)NC(=O)[C@H](CCC(=O)O)NC(=O)[C@@H](NC(=O)[C@H](CCCCN)NC(=O)[C@H](CCCCN)NC(=O)[C@H](CC(=O)O)NC(=O)[C@H](Cc1c[nH]c2ccccc12)NC(=O)[C@H](CCC(=O)O)NC(=O)[C@H](CCC(=O)O)NC(=O)[C@H](Cc1c[nH]c2ccccc12)NC(C)=O)[C@@H](C)CC)[C@@H](C)O)[C@@H](C)CC)C(=O)N[C@@H](CCCCN)C(=O)N[C@@H](CCCCN)C(=O)N[C@@H](Cc1cnc[nH]1)C(=O)N[C@@H](CCC(=O)O)C(=O)N[C@@H](CCC(=O)O)C(=O)N[C@@H](CCC(N)=O)C(=O)N[C@@H](CCC(N)=O)C(=O)N[C@@H](CCCCN)C(=O)N[C@@H](CCCCN)C(=O)N[C@@H](CC(N)=O)C(=O)N[C@@H](CCC(=O)O)C(=O)N[C@@H](CCC(=O)O)C(=O)N[C@@H](CCC(=O)O)C(=O)N[C@@H](CC(C)C)C(=O)N[C@@H](CCCCN)C(=O)N[C@@H](CCCCN)C(N)=O` (Ac-WEEWDKKIEEYTKKIEELIKKHEEQQKKNEEELKK-NH2), the Activity in assay [1] was 2.4%; in assay [2], 0.9%; in assay [3], 0.6%; in assay [5], 5.7%. Further, in assay [4], the Tm came out at 62.9 °C. Also, in assay [6], the pEC50 is 8.72.
Turning to `CC[C@H](C)[C@H](NC(=O)[C@H](CC(C)C)NC(=O)[C@H](CCC(=O)O)NC(=O)[C@H](CCC(=O)O)NC(=O)[C@@H](NC(=O)[C@H](CCCCN)NC(=O)[C@H](CCCCN)NC(=O)[C@@H](NC(=O)[C@H](Cc1ccc(O)cc1)NC(=O)[C@H](CCC(=O)O)NC(=O)[C@H](CCC(=O)O)NC(=O)[C@@H](NC(=O)[C@H](CCCCN)NC(=O)[C@H](CCCCN)NC(=O)[C@H](CC(=O)O)NC(=O)[C@H](Cc1c[nH]c2ccccc12)NC(=O)[C@H](CCC(=O)O)NC(=O)[C@H](CCC(=O)O)NC(=O)[C@H](Cc1c[nH]c2ccccc12)NC(C)=O)[C@@H](C)CC)[C@@H](C)O)[C@@H](C)CC)C(=O)N[C@@H](CCCCN)C(=O)N[C@@H](CCCCN)C(=O)N[C@@H](CO)C(=O)N[C@@H](CCC(=O)O)C(=O)N[C@@H](CCC(=O)O)C(=O)N[C@@H](Cc1ccc(O)cc1)C(=O)N[C@@H](CCC(N)=O)C(=O)N[C@@H](CCCCN)C(=O)N[C@@H](CCCCN)C(=O)N[C@@H](CC(N)=O)C(=O)N[C@@H](CCC(=O)O)C(=O)N[C@@H](CCC(=O)O)C(=O)N[C@@H](CCC(=O)O)C(=O)N[C@@H](CC(C)C)C(=O)N[C@@H](CCCCN)C(=O)N[C@@H](CCCCN)C(N)=O` (Ac-WEEWDKKIEEYTKKIEELIKKSEEYQKKNEEELKK-NH2), the midpoint of thermal melting (Tm) in assay [4] worked out at 76.3 °C. Further, in assay [7], the Activity worked out at 5.5%. In assay [6], the pEC50 was 8.66.
